Data: PMC12610713, “Inhibition Profiling of Rhodiola crenulata on Lactate Dehydrogenase Isoenzymes” (Molecules, 2025)
Read-outs that look alike come from different tables or passages of the source.

How the values were obtained:
recombinant LDHB [1] = target: T1, recombinant LDHB (Homo sapiens, UniProt P07195); test: LDHB enzyme activity inhibition assay (NADH oxidation, 340 nm); assay type: biochemical; settings: for IC50: 0.08 mM sodium pyruvate, 0.04 mM NADH, 10 min pre-incubation, 30 °C, read-out: IC50 against LDHB; for inhibition rate against LDHB (selection for dose-response): components assayed at 10 µM and 40 µM
T1 construct: His-tag; made in house; host or cells: E. coli BL21(DE3)
Procedure: The Z’ factor (Z’ = 1 − [3 × (σₚ + σₙ)]/|μₚ − μₙ|) was used to evaluate the robustness of the screening platform, where σ represents the standard deviation, μ represents the mean value, p denotes enzyme activity, and n denotes the background signal. […] (2) The enzyme-inhibitor mixture was pre-incubated for 10 min at room temperature. […] (4) At 30 °C, the enzymatic reaction was monitored at 340 nm for 20 min.
For the enzyme activity assay, the concentrations of the R. crenulata extract were 20 µg/mL, while the 19 isolated components was assayed at 10 µM and 40 µM.

MDA-MB-231 cells = test: Cell viability assay (CCK-8) MDA-MB-231; assay type: cell-based; settings: Homo sapiens, 72 h incubation, read-out: IC50 against MDA-MB-231
Procedure: (§1) The MDA-MB-231 and HepG2 cell lines, representing triple-negative breast cancer and hepatocellular carcinoma, were selected to evaluate the inhibitory effects of LDHA and LDHB inhibitors. […] Following 72 h of incubation, 10 µL of CCK-8 reagent was added to each well, and cells were further incubated for 1–4 h. Absorbance was measured at 450 nm with a reference wavelength of 600 nm for background correction. Data from three independent experiments (each with three technical replicates) were normalized to the vehicle control (100% viability) and medium-only wells (0% viability).

HepG2 cells = test: Cell viability assay (CCK-8) HepG2; assay type: cell-based; settings: Homo sapiens, 72 h incubation, read-out: IC50 against HepG2
Procedure: as §1

recombinant LDHA [2] = target: T2, recombinant LDHA (Homo sapiens, UniProt P00338); test: LDHA enzyme activity inhibition assay (NADH oxidation, 340 nm); assay type: biochemical; design: His-tag; made in house; host or cells: E. coli BL21(DE3); settings: for inhibition rate against LDHA (selection for dose-response) / LDH inhibitory activity, LDHA compared with LDHB (inhibition rates): components assayed at 10 µM and 40 µM; for LDH inhibitory activity, LDHA compared with LDHB (inhibition rates): Figure 5
CC(=O)C(=O)O [3] = test: purified protein, by the assay type; settings: other: pyruvate varied with NADH 0.6 mM; NADH varied with sodium pyruvate 1 mM; pH 7.4; 30.0 °C
CC(=O)C(=O)O [4] = system: T3, CC(=O)C(=O)O; test: Michaelis-Menten kinetics of recombinant LDHB; assay type: biochemical, homo sapiens; settings: other: pyruvate varied with NADH 0.6 mM; NADH varied with sodium pyruvate 1 mM; pH 7.4; 30.0 °C
T3 construct: His-tag; made in house; host or cells: E. coli BL21(DE3)
Procedure: (§2) Based on comprehensive literature evidence and systematic experimental validation, we established optimized enzymatic assay platforms for LDHA and LDHB inhibitor screening. In the platforms, 60 µL of purified enzyme solution (1.95 nM final concentration) was loaded into 96-well plates, followed by 140 µL of a 1:1 (v/v) pyruvate/NADH substrate mixture. Reactions were conducted in 0.1 M Tris-HCl buffer (with 10% glycerol, pH 7.4) at 30 °C, and NADH oxidation was kinetically monitored at 340 nm for 20 min. To determine the kinetic parameters, the optimization protocol for LDHA was performed as follows: with NADH fixed at 0.6 mM while varying sodium pyruvate (0.02–2.5 mM) to determine the optimal concentration; and with sodium pyruvate fixed at 1 mM while varying NADH (0.01–0.7 mM) to determine the optimal concentration. Similarly, the optimization protocol for LDHB was performed as follows: with NADH fixed at 0.6 mM while varying sodium pyruvate (0.01–1.05 mM) to determine the optimal concentration; and with sodium pyruvate fixed at 1 mM while varying NADH (0.01–0.7 mM) to determine the optimal concentration. The initial reaction rates were derived by analyzing the progress curves with OriginPro 2023 (OriginLab Co., Northampton, MA, USA). Kinetic parameters (Km and Vmax) were derived by nonlinear regression analysis of the Michaelis-Menten equation using GraphPad Prism 8.0 (GraphPad Software, San Diego, CA, USA).

recombinant LDHB [5] = target: T1, recombinant LDHB; test: Michaelis-Menten kinetics of recombinant LDHB; assay type: biochemical; settings: pyruvate varied with NADH 0.6 mM; NADH varied with sodium pyruvate 1 mM
Procedure: as §2

recombinant LDHA [6] = target: T2, recombinant LDHA; test: Michaelis-Menten kinetics of recombinant LDHA; settings: pyruvate varied with NADH 0.6 mM, NADH varied with sodium pyruvate 1 mM
[7] = 0.16 mM sodium pyruvate, 0.04 mM NADH, 10 min pre-incubation, 30 °C, read-out: IC50 against LDHA

T1 sequence (P07195 whole entry): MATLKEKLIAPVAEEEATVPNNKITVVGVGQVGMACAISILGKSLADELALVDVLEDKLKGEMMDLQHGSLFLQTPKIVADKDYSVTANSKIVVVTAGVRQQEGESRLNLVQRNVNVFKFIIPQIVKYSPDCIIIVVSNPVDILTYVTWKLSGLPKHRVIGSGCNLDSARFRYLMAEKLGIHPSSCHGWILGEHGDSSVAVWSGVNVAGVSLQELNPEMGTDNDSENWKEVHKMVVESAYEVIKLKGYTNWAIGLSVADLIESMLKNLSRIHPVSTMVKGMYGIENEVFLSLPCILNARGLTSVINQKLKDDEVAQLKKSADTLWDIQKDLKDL

Compound	IC50 (recombinant LDHB [1]) [µM]	inhibition rate against LDHB (selection for dose-response) (recombinant LDHB [1])	IC50 (MDA-MB-231 cells) [µM]	IC50 (HepG2 cells) [µM]	IC50 (recombinant LDHA [2]; [7]) [µM]	inhibition rate against LDHA (selection for dose-response) (recombinant LDHA [2])	LDH inhibitory activity, LDHA compared with LDHB (inhibition rates) (recombinant LDHA [2])	further results
Cc1cc2c(C(C)C)c(O)c(O)c(C=O)c2c(O)c1-c1c(C)cc2c(C(C)C)c(O)c(O)c(C=O)c2c1O [gossypol, reference compound]								IC50 (recombinant LDHA [2]): 0.19 ± 0.05 µM
O=c1c(O)c(-c2ccc(O)c(O)c2)oc2cc(O)cc(O)c12 [Quercetin]	0.87 ± 0.07	exceeding 80%	27.3 ± 1.5	54.8 ± 3	0.27 ± 0.02	exceeding 80%	stronger inhibition against LDHA than LDHB	
recombinant LDHA (Homo sapiens)								Km (CC(=O)C(=O)O [3]): 160 ± 27 µM
recombinant LDHB (Homo sapiens)								Km (CC(=O)C(=O)O [4]): 74 ± 19 µM
NC(=O)C1=CN([C@@H]2O[C@H](COP(=O)([O-])OP(=O)([O-])OC[C@H]3O[C@@H](n4cnc5c(N)ncnc54)[C@H](O)[C@@H]3O)[C@@H](O)[C@H]2O)C=CC1.[Na+].[Na+] [NADH, β-Nicotinamide adenine dinucleotide disodium salt]								Km (recombinant LDHB [5]): 40 ± 5 µM; Vmax of LDHB (recombinant LDHB [5]): 10.05 ± 0.33 µM/min; Vmax of LDHA (recombinant LDHA [6]): 15.37 ± 0.57 µM/min; Km (recombinant LDHA [6]; read-out: Km of LDHA): 39 ± 6 µM

More lines, main results first:

IC50 (recombinant LDHB [1]) [µM]	inhibition rate against LDHB (selection for dose-response) (recombinant LDHB [1])	IC50 (MDA-MB-231 cells) [µM]	IC50 (HepG2 cells) [µM]	IC50 (recombinant LDHA [2]; [7]) [µM]	inhibition rate against LDHA (selection for dose-response) (recombinant LDHA [2])	Compound	LDH inhibitory activity, LDHA compared with LDHB (inhibition rates) (recombinant LDHA [2])	further results
8.69 ± 0.85	exceeding 80%	37.5 ± 2	50 ± 2.5	0.7 ± 0.13	exceeding 80%	O=c1c(O)c(-c2ccc(O)cc2)oc2cc(O)cc(O)c12 [Kaempferol, kaempferol]	stronger inhibition against LDHA than LDHB	potency in inhibiting LDHA relative to LDHB (IC50 comparison) (recombinant LDHA [2]; LDHA vs LDHB): more than 10 fold
		54.3 ± 2.5	59 ± 3			O=c1oc2c(O)c(O)cc3c(=O)oc4c(O)c(O)cc1c4c23 [Ellagic acid]	stronger inhibition against LDHA than LDHB	
2.71 ± 0.39	exceeding 80%	25.1 ± 1	74 ± 3.5		exceeding 80%	O=c1cc(-c2ccc(O)c(O)c2)oc2cc(O)cc(O)c12 [Luteolin, luteolin]	stronger inhibition against LDHA than LDHB	
		23.5 ± 1	33.8 ± 1	2.27 ± 0.23	exceeding 80%	O=C(O[C@@H]1Cc2c(O)cc(O)cc2O[C@@H]1c1ccc(O)c(O)c1)c1cc(O)c(O)c(O)c1 [Epicatechin gallate, epicatechin gallate]	stronger inhibition against LDHA than LDHB	
